Assay results as given in US8623859B2, “Bradykinin B1 antagonists” (Evotec AG, priority 2008, dated 2014).
Counter-ions that a name gives are not always drawn.

Biological target: T1, human B1 (Homo sapiens, UniProt P46663)
T1 construct: host or cells: CHO-K1
T1 sequence (P46663 1-353): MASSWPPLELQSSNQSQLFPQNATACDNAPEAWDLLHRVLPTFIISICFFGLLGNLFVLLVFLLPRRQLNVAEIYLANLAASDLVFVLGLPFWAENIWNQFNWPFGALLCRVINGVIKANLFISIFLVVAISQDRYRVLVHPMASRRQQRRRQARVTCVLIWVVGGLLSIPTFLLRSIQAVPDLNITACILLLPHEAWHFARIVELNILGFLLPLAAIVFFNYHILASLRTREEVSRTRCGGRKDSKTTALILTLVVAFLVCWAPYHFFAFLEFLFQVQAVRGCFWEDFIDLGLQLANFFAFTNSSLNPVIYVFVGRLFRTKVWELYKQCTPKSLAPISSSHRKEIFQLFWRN
Test: Calcium flux assay for Bradykinin B1 antagonist, CHO-K1 cell line expressing human B1
Type: cell-based
Conditions: CHO-K1 cells expressing human B1, agonist Lys-(Des-Arg)-Bradykinin, read-out: Potency (IC50 value against human B1)
Method: Calcium Flux Assay for Bradykinin B1 Antagonist
The potency to inhibit the Bradykinin B1 receptors was determined for the compounds of this invention in a cell-based fluorescent calcium-mobilization assay. The assay measures the ability of test compounds to inhibit Bradykinin B1 receptor agonist-induced increase of intracellular free Ca^2+ in cell lines expressing B1.
The change of the intracellular Ca^2+ concentration is monitored with a specifically designed fluorescent plate reader (FlexStation, Molecular Devices).
CHO-K1 cell line expressing human B1 was purchased from Euroscreen (Gosselies, Belgium, with reference name hBl-D1). CHO-K1 cell lines expressing rat B1 or mouse B1 were established in the following way: the full-length receptor-coding cDNA clones were obtained by PCR performed on rat or mouse brain cDNAs. The respective cDNAs were cloned into an expression vector under the control of a CMV promotor. The resultant plasmids were introduced into CHO-K1 cells with liposome technology (FuGENE; Roche Diagnostics, Basel), according to the standard protocols described by the manufacturer. Cell lines expressing a Bradykinin receptor were selected in the culture medium containing 400 μg/ml G418 (Sigma). From selected cell populations, monoclonal cell lines were isolated by single cell cloning. The expression of Bradykinin receptors was confirmed by immunofluorescence staining of the cells, as well as by calcium flux assay.
Human B1-expressing cells were grown in Nutrient Mixture Ham's F12 (Sigma) containing 10% Foetal bovine serum (Sigma) and 400 μg/ml G418 (Sigma), 5 μg/ml puromycim (Sigma); Rat B1 and mouse B1-expressing cells were grown in DMEM/F12 medium (Sigma) containing 10% Foetal bovine serum (Sigma) and 400 μg/ml G418 (Sigma).
For the calcium flux assay, 80% confluent cells were detached from the culture vessels with Versene (Gibco; for human B1 cell-line) or with 1× trypsin-EDTA solution (Sigma; for rodent B1 cell-line), and seeded into 384-well plates (Cell binding Surface; Corning, N.Y.; #3683) at a density of 15,000 cells per well for human B1 or at a density of 20,000 cells per well for rodent B1. Cells were seeded in a volume of 50 μl in medium without antibiotics and incubated overnight in a humidified atmosphere with 5% CO2 at 37° C. The following day, the medium was replaced with 20 μl of 5 μM Fluo-4AM dye (Molecular Probes) in assay buffer (2.5 mM probenicid, 1 mg/ml pluronic acid, 0.1% BSA, 135 mM NaCl, 5 mM KCl, 1.8 mM CaCl, 1 mM MgCl2, 10 mM HEPES, 5.6 mM glucose, 0.05% gelatine, pH 7.4). The calcium indicator loaded cells were incubated at 37° C. for 2 hrs. Extracellular dye was then removed and each well was filled with 45 μl of assay buffer. Cell plates were kept in dark until used. Test compounds were assayed at 8 concentrations in triplicate. Serial 10-fold dilutions in 100% DMSO were made at a 100-times higher concentration than the final concentration, and then diluted 1:10 in assay buffer. 5 μl of each diluted compound was added to the well of cell plates (yielding final concentration with 1% DMSO), and incubated for 30 min at 25° C. before the addition of B1 agonist on the FlexStation.
The addition of agonist 20 μl per well to the assay plate was carried out on the FlexStation while continuously monitoring Ca^2+-dependent fluorescence at 538 nm. The integrated values, normalized with the background fluorescence, were plotted against the logarithm of the antagonist concentrations.

IC50	Compound
< 10 nM	COc1cc(C)c(S(=O)(=O)N(Cc2nc(C(=O)N(C)Cc3nc(CN4CCCC4)cs3)co2)C2CC2)c(C)c1 [Ex 200, 2-({Cyclopropyl[(4-methoxy-2,6-dimethylphenyl)sulfonyl]amino}methyl)-N-methyl-N-{[4-(pyrrolidin-1-ylmethyl)-1,3-thiazol-2-yl]methyl}-1,3-oxazole-4-carboxamide trifluoroacetate]
10 to 100 nM	COc1cc(C)c(S(=O)(=O)N(Cc2noc(C(=O)N3CCN(CCCN(C)C)CC3)n2)C2CC2)c(C)c1 [Ex 316, N-Cyclopropyl-N-{[5-([4-[3-(dimethylamino)propyl]piperazin-1-yl]carbonyl)-1,2,4-oxadiazol-3-yl]methyl}-4-methoxy-2,6-dimethylbenzenesulfonamide]
100 to 1000 nM	CCN(Cc1cc(C(=O)N(C)Cc2ccc(CN3CCCC3)cc2)co1)S(=O)(=O)c1c(C)cc(OC)cc1C [Ex 102, 5-({Ethyl[(4-methoxy-2,6-dimethylphenyl)sulfonyl]amino}methyl)-N-methyl-N-[4-(pyrrolidin-1-ylmethyl)benzyl]furan-3-carboxamide trifluoroacetate]
100 to 1000 nM	COc1cc(C)c(S(=O)(=O)N(Cc2nc(C(=O)N3CCN(Cc4ccc(F)nc4)CC3)co2)C2CC2)c(C)c1 [Ex 234, N-Cyclopropyl-N-{[4-({4-[(6-fluoropyridin-3-yl)methyl]piperazin-1-yl}carbonyl)-1,3-oxazol-2-yl]methyl}-4-methoxy-2,6-dimethylbenzenesulfonamide trifluoroacetate]
< 10 nM	COc1cc(C)c(S(=O)(=O)N(Cc2nnc(C(=O)N3CCN(C4CCN(C)CC4)CC3)s2)C2CC2)c(C)c1 [Ex 334, N-Cyclopropyl-4-methoxy-2,6-dimethyl-N-[(5-{[4-(1-methylpiperidin-4-yl)piperazin-1-yl]carbonyl}-1,3,4-thiadiazol-2-yl)methyl]benzenesulfonamide]
100 to 1000 nM	COc1cc(C)c(S(=O)(=O)N(C)Cc2nnc(C(=O)N3CCN(CCN4CCCC4)CC3)s2)c(C)c1 [Ex 326, 4-Methoxy-N,2,6-trimethyl-N-[(5-{[4-(2-pyrrolidin-1-ylethyl)piperazin-1-yl]carbonyl}-1,3,4-thiadiazol-2-yl)methyl]benzenesulfonamide]
100 to 1000 nM	COc1cc(C)c(S(=O)(=O)N(C)Cc2nnc(C(=O)N3CCN(CC4CCN(C)CC4)CC3)[nH]2)c(C)c1 [Ex 338, 4-Methoxy-N,2,6-trimethyl-N-{[5-({4-[(1-methylpiperidin-4-yl)methyl]piperazin-1-yl}carbonyl)-4H-1,2,4-triazol-3-yl]methyl}benzenesulfonamide]
100 to 1000 nM	COc1cc(C)c(S(=O)(=O)N(C)Cc2nc(C(=O)N(C)Cc3nnc(CN4CCCC4)s3)co2)c(C)c1 [Ex 201, 2-({[(4-Methoxy-2,6-dimethylphenyl)sulfonyl](methyl)amino}methyl)-N-methyl-N-{[5-(pyrrolidin-1-ylmethyl)-1,3,4-thiadiazol-2-yl]methyl}-1,3-oxazole-4-carboxamide trifluoroacetate]
10 to 100 nM	COc1cc(C)c(S(=O)(=O)N(C)Cc2nc(C(=O)NCc3ccc(CN4CCCC4)cc3)co2)c(C)c1 [Ex 72, 2-({[(4-Methoxy-2,6dimethylphenyl)sulfonyl](methyl)amino}methyl)-N-[4-(pyrrolidin-1-ylmethyl)benzyl]-1,3-oxazole-4-carboxamide]

Further lines, the compound ahead of its results:

Compound	IC50
COc1cc(C)c(S(=O)(=O)N(Cc2nc(C(=O)N(C)C3CCC(N4CCN(C)CC4)CC3)co2)C2CC2)c(C)c1 (stereo not shown) [Ex 243, 2-({Cyclopropyl[(4-methoxy-2,6-dimethylphenyl)sulfonyl]amino}methyl)-N-methyl-N-[4-(4-methylpiperazin-1-yl)cyclohexyl]-1,3-oxazole-4-carboxamide trifluoroacetate]	10 to 100 nM
COc1cc(C)c(S(=O)(=O)N(C)Cc2noc(C(=O)NCCc3ccc(C4=NCCN4)cc3)n2)c(C)c1 [Ex 64, N-{2-[4-(4,5-dihydro-1H-imidazol-2-yl)phenyl]ethyl}-3-({[(4-methoxy-2,6-dimethylphenyl)sulfonyl](methyl)amino}methyl)-1,2,4-oxadiazole-5-carboxamide]	< 10 nM
CCN(Cc1cc(C(=O)N(C)Cc2ccc(CN3CCCC3)cc2)co1)S(=O)(=O)c1c(Cl)cccc1Cl [Ex 121, 5-({[(2,6-Dichlorophenyl)sulfonyl](ethyl)amino}methyl)-N-methyl-N-[4-(pyrrolidin-1-ylmethyl)benzyl]furan-3-carboxamide trifluoroacetate]	100 to 1000 nM
COc1cc(C)c(S(=O)(=O)N(Cc2nc(C(=O)N3CC4CCN(C5CCN(C)CC5)CC4C3)co2)C2CC2)c(C)c1 (stereo not shown) [Ex 206, N-Cyclopropyl-4-methoxy-2,6-dimethyl-N-[(4-{[5-(1-methylpiperidin-4-yl)octahydro-2H-pyrrolo[3,4-c]pyridin-2-yl]carbonyl}-1,3-oxazol-2-yl)methyl]benzenesulfonamide trifluoroacetate]	100 to 1000 nM
COc1cc(C)c(S(=O)(=O)N(Cc2nc(C(=O)N3CC4CN(Cc5ccc(OC)nc5)CC4C3)co2)C2CC2)c(C)c1 (stereo not shown) [Ex 209, N-Cyclopropyl-4-methoxy-N-{[4-({5-[(6-methoxypyridin-3-yl)methyl]hexahydropyrrolo[3,4-c]pyrrol-2(1H)-yl}carbonyl)-1,3-oxazol-2-yl]methyl}-2,6-dimethylbenzenesulfonamide trifluoroacetate]	100 to 1000 nM
COc1cc(C)c(S(=O)(=O)N(Cc2nc(C(=O)N3CCC(C4CCNCC4)CC3)co2)C2CC2)c(C)c1 [Ex 239, N-{[4-(4,4′-Bipiperidin-1-ylcarbonyl)-1,3-oxazol-2-yl]methyl}-N-cyclopropyl-4-methoxy-2,6-dimethylbenzenesulfonamide trifluoroacetate]	100 to 1000 nM
COc1cc(C)c(S(=O)(=O)N(Cc2cc(C(=O)NCCc3ccc(C4=NCCN4)cc3)co2)CC2CC2)c(C)c1 [Ex 49, 5-({(Cyclopropylmethyl)[(4-methoxy-2,6-dimethylphenyl)sulfonyl]amino}methyl)-N-{2-[4-(4,5-dihydro-1H-imidazol-2-yl)phenyl]ethyl}furan-3-carboxamide]	10 to 100 nM
CN(Cc1cc(C(=O)NCc2ccc(CN3CCCC3)cc2)co1)S(=O)(=O)c1c(Cl)cc(Br)cc1Cl [Ex 27, 5-({[(4-bromo-2,6-dichlorophenyl)sulfonyl](methyl)amino}methyl)-N-[4-(pyrrolidin-1-ylmethyl)benzyl]furan-3-carboxamide]	100 to 1000 nM
COc1cc(C)c(S(=O)(=O)N(Cc2nc(C(=O)N(C)Cc3ccc(CN4CCCC(OC)C4)cc3)co2)C2CC2)c(C)c1 (stereo not shown) [Ex 184, 2-({Cyclopropyl[(4-methoxy-2,6-dimethylphenyl)sulfonyl]amino}methyl)-N-{4-[(3-methoxypiperidin-1-yl)methyl]benzyl}-N-methyl-1,3-oxazole-4-carboxamide]	< 10 nM
COc1cc(C)c(S(=O)(=O)N(Cc2cc(C(=O)N(C)Cc3ccc(CN4CCC(N(C)C)C4)cc3)co2)C2CC2)c(C)c1 (stereo not shown) [Ex 140, 5-({Cyclopropyl[(4-methoxy-2,6-dimethylphenyl)sulfonyl]amino}methyl)-N-(4-{[3-(dimethylamino)pyrrolidin-1-yl]methyl}benzyl)-N-methylfuran-3-carboxamide]	10 to 100 nM
